Patent US9434687B2, “Detection of synthetic cannabinoids” (priority 2011, dated 2016)

Legend:
Assay type in all cases: binding, sheep
[1] = system: antiserum raised to Immunogen II (Hapten B-BTG); assay: Competitive ELISA microtiter plate assay, antiserum raised to Immunogen II, conjugate Hapten A-HRP (Example 19)
Experimental: (§1) Aqueous solutions of the immunogens prepared in examples 5 and 13 were formulated with Freund's Complete Adjuvant (FCA) to form emulsions consisting of 2 mg/ml Immunogen I and 2 mg/ml of Immunogen II in 50% (v/v) FCA. Three sheep were immunised with each emulsion (1° immunisations), 0.25 ml being intramuscularly injected at four sites in the rump of each animal. Subsequent immunisations (boosts 2-8) contained 1 mg/ml Immunogen I and 1 mg/ml Immunogen II. All boosts were emulsified in 50% (v/v) Freund's Incomplete Adjuvant (FIA) and administered to the appropriate sheep in the same manner as the 1° immunisations, at monthly intervals. Blood sampling took place 7-14 days after each boost. Each sample was processed to produce antiserum, which was further purified by caprylic acid and ammonium sulphate precipitation to yield an immunoglobulin (Ig) fraction. The Ig fraction was evaluated by competitive ELISA microtiter plate assay, as described in example 19 below.
(§2) (a) The wells of an enhanced binding 96 well polystyrene microtiter plate were coated with the Ig fraction of the antiserum raised to Immunogen I (Hapten A-BTG—example 5) and diluted in 10 mM Tris, pH8.5 (125 μl/well). The appropriate antibody coating concentration was determined using standard ELISA checkerboard techniques. The plate was incubated for 2 hours at 37° C., washed 4 times over a 10-minute period with Tris buffered saline containing Tween 20 (TBST) and tapped dry. Standard solutions of JWH synthetic cannabinoids, metabolites and selected molecules were prepared in TBST and 50 μl of each was added to the appropriate wells. 75 μl of conjugate (Hapten A-HRP) diluted in Tris buffer containing EDTA, D-mannitol, sucrose, thimerosal and BSA, was added to each of the wells. The appropriate dilution of conjugate was also determined using standard ELISA checkerboard techniques. The plate was incubated at 25° C. for 1 hour. The excess unbound conjugate was removed by washing 6 times over a 10-minute period with TBST and tapped dry. 125 μl of tetramethylbenzedine (TMB) substrate solution was added to each well of the plate that was then incubated for 15-20 minutes in the dark at room temperature. The reaction was terminated by addition of 125 μl of 0.2M sulphuric acid to each well. The absorbance was then measured at 450 nm using a microtiter plate reader.
(§3) Employing each series of standards, calibration curves were generated and these were used to determine the specificity of the immunoassay for the JWH synthetic cannabinoids, metabolites and selected molecules. The results of this study are presented in Tables 1 to 3, cross-reactivity being calculated according to the following formula: % CR=IC50,JWH-018/IC50,CR×100
(§4) Where % CR is the percentage cross-reactivity, IC50, JWH-018 is the concentration of JWH-018 that causes 50% displacement of signal and IC50, CR is the concentration of JWH synthetic cannabinoid/metabolite/selected molecule that causes 50% displacement of signal.
Table 1: Data generated from a competitive microtiter plate assay for JWH synthetic cannabinoids and metabolites, employing antiserum raised to Immunogen II (Hapten B-BTG) and conjugate (Hapten A-HRP) as detection reagent.
(§5) (d) The resulting competitive ELISA for synthetic cannabinoids and metabolites was also employed to test for the 5-fluoropentyl derivative of JWH-018, (1-(5-fluoropentyl)indol-3yl (1-naphthyl) methanone (Table 4).

[2] = system: antiserum raised to Immunogen I (Hapten A-BTG); assay: Competitive ELISA microtiter plate assay, antiserum raised to Immunogen I, conjugate Hapten A-HRP (Example 19)
Experimental: as §1, §2, §3, §4
(b) In a similar manner to that described in Example 19(a), the wells of a 96 well microtiter plate were coated with the Ig fraction of the antiserum raised to Immunogen I (Hapten A-BTG). Conjugate (Hapten A-HRP) was employed as a detection reagent.
Table 2: Data generated from a competitive microtiter plate assay for JWH synthetic cannabinoids and metabolites, employing antiserum raised to Immunogen I (Hapten A-BTG) and conjugate (Hapten A-HRP) as detection reagent.
as §5

[3] = system: IgG fraction of antiserum raised to Immunogen II; assay: Competitive ELISA, antibody RS1833B12 to Immunogen II, tracer ESC4555 (Example 36)
[4] = Table 1, CR based on 100% for JWH-018
[5] = Table 1, detecting agent derived from Hapten-A, 40 ng/ml highest concentration tested
[6] = Table 2, CR based on 100% for JWH-018
[7] = Table 2, detecting agent derived from Hapten-A, 40 ng/ml highest concentration tested
[8] = Antibody to Immunogen II, cross-reactants at 100 ng/ml, 1000 ng/ml, standard JWH-018
[9] = Table 4, Immunogen II, relative to JWH-018
[10] = Table 4, Immunogen I, relative to JWH-018

SMILES | % Cross-reactivity [1, 4] | IC50 [1, 5] | % Cross-reactivity [2, 6] | IC50 [2, 7] | % B/B0 [3, 8] | binding to the antibody produced from Immunogen I (in words) [2] | IC50 ([1]; Table 4, Immunogen II) | % Cross-reactivity [1, 9] | IC50 ([2]; Table 4, Immunogen I) | % Cross-reactivity [2, 10] | % B/B0 ([3]; JWH-018 0.625 ng/ml) | % B/B0 ([3]; JWH-018 1.25 ng/ml) | % B/B0 ([3]; JWH-018 2.5 ng/ml) | % B/B0 ([3]; JWH-018 5 ng/ml) | % B/B0 ([3]; JWH-018 10 ng/ml) | % B/B0 ([3]; JWH-018 20 ng/ml) | % B/B0 ([3]; JWH-018 40 ng/ml) | IC50 ([3]; Table 7 standard curve, standard concentration which produces 50% B/B0)
CCCCCn1cc(C(=O)c2cccc3ccccc23)c2c(O)cccc21 [4-OH JWH-018, JWH-018 4-hydroxyindole metabolite] | 23.03% | 9.16 ng/mL | 10.62% | 25.51 ng/mL | 29.49% | – | – | – | – | – | – | – | – | – | – | – | – | –
CCCCCn1cc(C(=O)c2cccc3ccccc23)c2cc(O)ccc21 [5-OH JWH-018, JWH-018 5-hydroxyindole metabolite] | 130.25% | 1.62 ng/mL | 694.87% | 0.39 ng/mL | 12.14% | able to bind | – | – | – | – | – | – | – | – | – | – | – | –
CCCCCn1cc(C(=O)c2cccc3ccccc23)c2ccc(O)cc21 [6-OH JWH-018, JWH-018 6-hydroxyindole metabolite] | 215.31% | 0.98 ng/mL | 132.84% | 2.04 ng/mL | 24.39% | able to bind | – | – | – | – | – | – | – | – | – | – | – | –
O=C(c1cccc2ccccc12)c1cn(CCCCCF)c2ccccc12 [AM-2201, 1-(5-Fluoropentyl)indol-3-yl (1-naphthyl) methanone] | – | – | – | – | 11.72% | – | 0.22 ng/mL | 908.00% | 0.02 ng/mL | 11500.00% | – | – | – | – | – | – | – | –
O=C(c1cccc2ccccc12)c1cn(CCCCCO)c2ccccc12 [JWH-018 N-(5-hydroxypentyl) metabolite] | 183.48% | 1.15 ng/mL | 1505.56% | 0.18 ng/mL | 53.38% | – | – | – | – | – | – | – | – | – | – | – | – | –
O=C(O)CCCCn1cc(C(=O)c2cccc3ccccc23)c2ccccc21 [JWH-018 N-pentanoic acid metabolite] | 38.50% | 5.48 ng/mL | 645.24% | 0.42 ng/mL | 85.61% | – | – | – | – | – | – | – | – | – | – | – | – | –
CCCCCn1cc(C(=O)c2cccc3ccccc23)c2ccccc21 [JWH-018] | 100.00% | 2.11 ng/mL | 100.00% | 2.71 ng/mL | 9.29% | able to bind | 1.97 ng/mL | 100.00% | 2.30 ng/mL | 100.00% | 68% | 53% | 34% | 25% | 17% | 13% | 10% | 1.333 ng/mL
CCCCn1cc(C(=O)c2cccc3ccccc23)c2ccccc21 [JWH-073] | 135.26% | 1.56 ng/mL | 291.40% | 0.93 ng/mL | 15.24% | – | – | – | – | – | – | – | – | – | – | – | – | –
O=C(c1cccc2ccccc12)c1cn(CCN2CCOCC2)c2ccccc12 [JWH-200] | 127.11% | 1.66 ng/mL | 874.19% | 0.31 ng/mL | 54.02% | – | – | – | – | – | – | – | – | – | – | – | – | –
CCCCCn1cc(C(=O)c2ccc(Cl)c3ccccc23)c2ccccc21 [JWH-398] | 12.02% | 17.55 ng/mL | <<6.78% | >>40 ng/ml | 30.31% | – | – | – | – | – | – | – | – | – | – | – | – | –
O=C(c1cccc2ccccc12)c1c[nH]c2ccccc12 [N-desalkyl JWH-018, 3-(1-naphthoyl)-1H-Indole] | <<5.28% | >>40 ng/ml | 70.57% | 3.84 ng/mL | 99.18% | – | – | – | – | – | – | – | – | – | – | – | – | –
